Assay results from patent US6177424A, “4'-Substituted-4',5'-dihydropsoralens and therapeutical uses thereof” (priority 1999, dated 2001).
Where a name gives a salt, the structure may show the parent alone. Read-outs that look alike come from different tables or passages of the source.

System: PAM 212 keratinocytes
Assay: PAM 212 keratinocyte growth inhibition assay (photobiological activity; Toxicity, Table I)
Type: cell-based
Conditions: Mus musculus, PAM212, light or radiation study
Excerpt: Psoriasis, mycosis fungolides, eczema, scleroderma, cancer, and similar proliferative diseases are often characterized by abnormal cell growth regulation. Application of PUVA therapy to correct proliferative disorders on the skin or internally, especially psoriasis, is one clinical expression of photochemotherapy. The use of the assay described in Example 16 is based on the observation that phototherapeutics are extremely potent inhibitors of growth factor binding in mammalian cells including humans and this inhibition arrests the proliferative disorder. This assay was performed in the cell culture laboratory. For a discussion of cell growth assays see, e.g:, J. Laskin et al., Cancer Research, vol. 39, pp. 383-390 (1979) and E. Yurkow and J. Laskin, Cancer Chemotherapy and Pharmacology, vol. 27, pp. 315-319, (1991). Inhibition of cell growth is dependent on dose ol the phototherapeutic and on the quanta of light in the 320-400 nm wavelength (ultraviolet light A). It is also structure-dependent, that is, there is a direct correlation between those specific phototherapeutics currently used that are clinically active and their ability to inhibit the growth of the cells.
Representative examples of the compounds described and claimed herein were tested in this assay for biological activity and found to be potent inhibitors of cell growth. Inhibition of cell growth was rapid, dependent on concentration, and required light activation. […] A description of this assay follows.
The photobiological activity was assayed using a keratinocyte cell line grown in a monolayer culture. In this assay, PAM 212 keratinocytes were grown in Dulbecco's Modified Eagle's medium supplemented with 10% newborn calf serum in a 5% carbon dioxide incubator. Cells were inoculated into 6-well Falcon plastic culture dishes at 25,000 cells per well. After 24 hours, the medium was charged to fresh growth medium supplemented with increasing concentrations of the test compounds or the control medium. Controls and test concentrations were analyzed in triplicate.
These plates were then incubated in a 37° C. carbon dioxide incubator. […] The incident light on the culture plates was 2.4 mW/cm^2 as measured with an International Light UV radiometer, Model IL 442A. […]
After completion of the irradiation phase, the cell culture medium was drained, the cells refed with fresh growth medium and then re-incubated in the carbon dioxide incubator to allow for cell growth. After 4-5 days of growth the culture plates were removed from the incubator and the cell culture medium was drained. The cells were detached from the plates with trypsin and counted in a Coulter Counter. For control cells or for cells treated with test compounds, cell growth was determined as a percentage of control. […] This value is shown in Table I for a variety of phototherapeutics.

[1] = with UVA (320-400 nm) 1.28 J/square centimeter after 30 minutes incubation, 4-5 days of growth, read-out: Photo-toxicity (IC50 values), concentration at which photoactivated test compound inhibited growth by 50%
[2] = dark (no UVA light), read-out: Dark-toxicity (IC50 values)

Cc1cc(=O)oc2c(C)c(O)c([N+](=O)[O-])cc12 [Example 1, 6-Nitro-4,8-dimethyl-7-hydroxycoumarin]
IC50 [1]: > 300 µM

C=CCOc1c([N+](=O)[O-])cc2c(C)cc(=O)oc2c1C [Example 2, 6-Nitro-4,8-dimethyl-7-allyloxycoumarin]
IC50 [2]: > 100 µM
IC50 [1]: 5 µM

C=CCOc1c(N)cc2c(C)cc(=O)oc2c1C [Example 3, 6-Amino-4.8-dimethyl-7-allyloxycoumarin]
IC50 [2]: > 100 µM
IC50 [1]: 240 µM

Cc1cc(=O)oc2c(C)c3c(cc12)C(CI)CO3 (stereo not shown) [Example 5, 4,8-Dimethyl-4'-iodomethyl-4',5'-dihydropsoralen]
IC50 [2]: > 100 µM
IC50 [1]: 0.1 µM

Cc1c(Br)c(=O)oc2c(C)c3c(cc12)C(CI)CO3 (stereo not shown) [Example 6, 3-Bromo-4,8-dimethyl-4'-iodomethyl-4',5'-dihydropsoralen]
IC50 [1]: 0.2 to 0.5 µM

Cc1cc(=O)oc2c(C)c3c(cc12)C(C[n+]1ccccc1)CO3 (stereo not shown) [Example 9, 4,8-Dimethyl-4'-pyridiniummethyl-4',5'-dihydropsoralen Iodide Salt]
IC50 [1]: 0.5 µM

Cc1c(Br)c(=O)oc2c(C)c3c(cc12)C(C[n+]1ccccc1)CO3 (stereo not shown) [Example 12, 3-Bromo-4,8-dimethyl-4'-pyridiniummethyl-4',5'-dihydropsoralen Iodide Salt]
IC50 [2]: 70 µM
IC50 [1]: > 30 µM

Cc1cc(=O)oc2c(C)c3c(cc12)C(CC#N)CO3 (stereo not shown) [Example 15, 4,8-Dimethyl-4'-cyanomethyl-4',5'-dihydropsoralen]
IC50 [2]: > 100 µM
IC50 [1]: 3 µM
